According to patent US7655629B2, “Peptides and their use for the treatment of HIV infections” (priority 2002, dated 2010):
Positions of bridges follow the written chain, without caps; N, C: chain ends. Non-standard residues stand in square brackets, D forms with d. Residues, ends and D or L forms follow the SMILES beside them. Phe(4-F) = N[C@@H](Cc1ccc(F)cc1)C(=O)O; 1Nal = N[C@@H](Cc1cccc2ccccc12)C(=O)O; 4Pal = N[C@@H](Cc1ccncc1)C(=O)O; Tic = O=C(O)[C@@H]1Cc2ccccc2CN1; 3Thi = N[C@@H](Cc1ccsc1)C(=O)O

Tests used:
[1] = system: HIV-1 NL4-3 DTV; settings: read-out: IC50 DTV, P4-CCR5 cells, peptide 2 h before infection, readout three days after infection
How it was run: (§1)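 P4-CCR5 cells (CD4, CCR5, CXCR4, HIV-1 promoter-driven β-galactosidase) pretreated 2 h with peptide, then infected with virus containing 1 ng p24 antigen and incubated overnight. Cells washed and cultured without peptide; three days post-infection infectivity read by chemiluminescent β-galactosidase assay, in quintuplicate.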

[2] = system: X4-tropic HIV-1 NL4-3; settings: for IC50: read-out: IC50 NL4-3, P4-CCR5 cells, HIV-1 NL4-3, peptide 2 h before infection, readout three days after infection
How it was run: as §1

Molecule: CC[C@H](C)[C@H](NC(=O)[C@H](C)NC(=O)[C@H](CCC(=O)O)NC(=O)[C@@H](N)CC(C)C)C(=O)N1CCC[C@H]1C(=O)N[C@@H](CCSC)C(=O)N[C@@H](CO)C(=O)N[C@H](C(=O)N1CCC[C@H]1C(=O)N1CCC[C@@H]1C(=O)N[C@@H](CCC(=O)O)C(=O)N[C@H](C(=O)N[C@@H](Cc1ccsc1)C(=O)N[C@@H](Cc1ccccc1)C(=O)N[C@@H](CC(N)=O)C(=O)N[C@@H](CCCCN)C(=O)N1CCC[C@H]1C(=O)N[C@@H](Cc1ccccc1)C(=O)N[C@H](C(=O)N[C@@H](Cc1ccccc1)C(=O)O)C(C)C)C(C)C)[C@@H](C)CC [VIR-265, LEAIPMSIPpEV(3-thienylalanine)FNKPFVF] (H-LEAIPMSIP[dP]EV[3Thi]FNKPFVF-OH)
- IC50 [1]: 2.21 µM
- IC50 [2]: 1.29 µM

Molecule: CC[C@H](C)[C@H](NC(=O)[C@H](CCCCN)NC(=O)[C@H](CCC(=O)O)NC(=O)[C@@H](N)CC(C)C)C(=O)N1CCC[C@H]1C(=O)N[C@@H](CCSC)C(=O)N[C@@H](CO)C(=O)N[C@H](C(=O)N1CCC[C@H]1C(=O)N1CCC[C@@H]1C(=O)N[C@@H](CCC(=O)O)C(=O)N[C@H](C(=O)N[C@@H](C)C(=O)N[C@@H](Cc1ccccc1)C(=O)N[C@@H](CC(N)=O)C(=O)N[C@@H](CCCCN)C(=O)N1CCC[C@H]1C(=O)N[C@@H](Cc1ccccc1)C(=O)N[C@H](C(=O)N[C@@H](Cc1ccccc1)C(=O)O)C(C)C)C(C)C)[C@@H](C)CC [VIR-255, LEKIPMSIPpEVAFNKPFVF] (H-LEKIPMSIP[dP]EVAFNKPFVF-OH)
- IC50 [1]: 1.23 µM
- IC50 [2]: 0.65 µM

Molecule: CC[C@H](C)[C@H](NC(=O)[C@H](C)NC(=O)[C@H](CCC(=O)O)NC(=O)[C@@H](N)CC(C)C)C(=O)N1CCC[C@H]1C(=O)N[C@@H](CCSC)C(=O)N[C@@H](CO)C(=O)N[C@H](C(=O)N1CCC[C@H]1C(=O)N1CCC[C@@H]1C(=O)N[C@@H](CCC(=O)O)C(=O)N[C@H](C(=O)N[C@@H](Cc1ccccc1)C(=O)N[C@@H](Cc1ccccc1)C(=O)N[C@@H](CC(N)=O)C(=O)N[C@@H](CCCCN)C(=O)N1CCC[C@H]1C(=O)N[C@@H](Cc1ccccc1)C(=O)N[C@H](C(=O)N[C@@H](Cc1ccccc1)C(=O)O)C(C)C)C(C)C)[C@@H](C)CC [VIR-197, LEAIPMSIPpEVFFNKPFVF] (H-LEAIPMSIP[dP]EVFFNKPFVF-OH)
- IC50 [1]: 1.44 µM
- IC50 [2]: 1.27 µM

Molecule: CC[C@H](C)[C@H](NC(=O)[C@H](C)NC(=O)[C@H](CCC(=O)O)NC(=O)[C@@H](N)CC(C)C)C(=O)N1CCC[C@H]1C(=O)N[C@@H](CCSC)C(=O)N[C@@H](CO)C(=O)N[C@H](C(=O)N1CCC[C@H]1C(=O)N1CCC[C@@H]1C(=O)N[C@@H](CCC(=O)O)C(=O)N[C@H](C(=O)N[C@@H](Cc1ccccc1)C(=O)N[C@@H](Cc1ccccc1)C(=O)NCC(=O)N[C@@H](CCCCN)C(=O)N1CCC[C@H]1C(=O)N[C@@H](Cc1ccccc1)C(=O)N[C@H](C(=O)N[C@@H](Cc1ccccc1)C(=O)O)C(C)C)C(C)C)[C@@H](C)CC [VIR-192, LEAIPMSIPpEVFFGKPFVF] (H-LEAIPMSIP[dP]EVFFGKPFVF-OH)
- IC50 [1]: 1.21 µM
- IC50 [2]: 1.54 µM

Molecule: CC[C@H](C)[C@H](NC(=O)[C@H](C)NC(=O)[C@H](CCC(=O)O)NC(=O)[C@@H](N)CC(C)C)C(=O)N1CCC[C@H]1C(=O)N[C@@H](CCSC)C(=O)N[C@@H](CO)C(=O)N[C@H](C(=O)N1CCC[C@H]1C(=O)N1CCC[C@@H]1C(=O)N[C@@H](CCC(=O)O)C(=O)N[C@@H](Cc1ccccc1)C(=O)N[C@@H](C)C(=O)N[C@@H](Cc1ccccc1)C(=O)N[C@@H](CC(N)=O)C(=O)N[C@@H](CCCCN)C(=O)N1CCC[C@H]1C(=O)N[C@@H](Cc1ccccc1)C(=O)N[C@H](C(=O)N[C@@H](Cc1ccccc1)C(=O)O)C(C)C)[C@@H](C)CC [VIR-193, LEAIPMSIPpEFAFNKPFVF] (H-LEAIPMSIP[dP]EFAFNKPFVF-OH)
- IC50 [1]: 1.38 µM
- IC50 [2]: 1.74 µM

Molecule: CC[C@H](C)[C@H](NC(=O)[C@H](C)NC(=O)[C@H](CCC(=O)O)NC(=O)[C@@H](N)CC(C)C)C(=O)N1CCC[C@H]1C(=O)N[C@@H](CCSC)C(=O)N[C@@H](CO)C(=O)N[C@H](C(=O)N1CCC[C@H]1C(=O)N1CCC[C@@H]1C(=O)N[C@@H](CCC(=O)O)C(=O)N[C@H](C(=O)N[C@@H](Cc1ccncc1)C(=O)N[C@@H](Cc1ccccc1)C(=O)N[C@@H](CC(N)=O)C(=O)N[C@@H](CCCCN)C(=O)N1CCC[C@H]1C(=O)N[C@@H](Cc1ccccc1)C(=O)N[C@H](C(=O)N[C@@H](Cc1ccccc1)C(=O)O)C(C)C)C(C)C)[C@@H](C)CC [VIR-260, LEAIPMSIPpEV(4-pyridylalanine)FNKPFVF] (H-LEAIPMSIP[dP]EV[4Pal]FNKPFVF-OH)
- IC50 [1]: 2.38 µM
- IC50 [2]: 2.15 µM

Molecule: CC[C@H](C)[C@H](NC(=O)[C@H](C)NC(=O)[C@H](CCC(=O)O)NC(=O)[C@@H](N)CC(C)C)C(=O)N1CCC[C@H]1C(=O)N[C@@H](CCSC)C(=O)N[C@@H](CO)C(=O)N[C@H](C(=O)N1CCC[C@H]1C(=O)N1CCC[C@@H]1C(=O)N[C@@H](CCC(=O)O)C(=O)N[C@H](C(=O)N1Cc2ccccc2C[C@H]1C(=O)N[C@@H](Cc1ccccc1)C(=O)N[C@@H](CC(N)=O)C(=O)N[C@@H](CCCCN)C(=O)N1CCC[C@H]1C(=O)N[C@@H](Cc1ccccc1)C(=O)N[C@H](C(=O)N[C@@H](Cc1ccccc1)C(=O)O)C(C)C)C(C)C)[C@@H](C)CC [VIR-263, LEAIPMSIPpEV(L-Tic)FNKPFVF] (H-LEAIPMSIP[dP]EV[Tic]FNKPFVF-OH)
- IC50 [1]: 0.33 µM
- IC50 [2]: 0.77 µM

Molecule: CC[C@H](C)[C@H](NC(=O)[C@H](C)NC(=O)[C@H](CCC(=O)O)NC(=O)[C@@H](N)CC(C)C)C(=O)N1CCC[C@H]1C(=O)N[C@@H](CCSC)C(=O)N[C@@H](CO)C(=O)N[C@H](C(=O)N1CCC[C@H]1C(=O)N1CCC[C@@H]1C(=O)N[C@@H](CCC(=O)O)C(=O)N[C@H](C(=O)NCC(=O)N[C@@H](Cc1ccccc1)C(=O)NCC(=O)N[C@@H](CCCCN)C(=O)N1CCC[C@H]1C(=O)N[C@@H](Cc1ccccc1)C(=O)N[C@H](C(=O)N[C@@H](Cc1ccccc1)C(=O)O)C(C)C)C(C)C)[C@@H](C)CC [VIR-190, LEAIPMSIPpEVGFGKPFVF] (H-LEAIPMSIP[dP]EVGFGKPFVF-OH)
- IC50 [1]: 3.11 µM
- IC50 [2]: 1.84 µM

Molecule: CC[C@H](C)[C@H](NC(=O)[C@H](C)NC(=O)[C@H](CCC(=O)O)NC(=O)[C@@H](N)CC(C)C)C(=O)N1CCC[C@H]1C(=O)N[C@@H](CCSC)C(=O)N[C@@H](CO)C(=O)N[C@H](C(=O)N1CCC[C@H]1C(=O)N1CCC[C@@H]1C(=O)N[C@@H](CCC(=O)O)C(=O)N[C@@H](Cc1ccc(F)cc1)C(=O)N[C@@H](C)C(=O)N[C@@H](Cc1ccccc1)C(=O)N[C@@H](CC(N)=O)C(=O)N[C@@H](CCCCN)C(=O)N1CCC[C@H]1C(=O)N[C@@H](Cc1ccccc1)C(=O)N[C@H](C(=O)N[C@@H](Cc1ccccc1)C(=O)O)C(C)C)[C@@H](C)CC [VIR-259, LEAIPMSIPpE(p-fluorophenylalanine)AFNKPFVF] (H-LEAIPMSIP[dP]E[Phe(4-F)]AFNKPFVF-OH)
- IC50 [1]: 1.03 µM
- IC50 [2]: 0.86 µM

Molecule: CC[C@H](C)[C@H](NC(=O)[C@H](C)NC(=O)[C@H](CCC(=O)O)NC(=O)[C@@H](N)CC(C)C)C(=O)N1CCC[C@H]1C(=O)N[C@H]1CSSC[C@@H](C(=O)N[C@H](C(=O)NCC(=O)N[C@@H](Cc2ccccc2)C(=O)NCC(=O)N[C@@H](CCCCN)C(=O)N2CCC[C@H]2C(=O)N[C@@H](Cc2ccccc2)C(=O)N[C@H](C(=O)N[C@@H](Cc2ccccc2)C(=O)O)C(C)C)C(C)C)NC(=O)[C@@H]2CCCN2C(=O)[C@@H]2CCCN2C(=O)[C@H]([C@@H](C)CC)NC(=O)[C@H](CO)NC1=O [VIR-162] (H-LEAIPCSIPPCVGFGKPFVF-OH; disulfide 6-11)
- IC50 [1]: 0.95 µM
- IC50 [2]: 0.66 µM

Molecule: CC[C@H](C)[C@H](NC(=O)[C@H](C)NC(=O)[C@H](CCC(=O)O)NC(=O)[C@@H](N)CC(C)C)C(=O)N1CCC[C@H]1C(=O)N[C@@H](CCSC)C(=O)N[C@@H](CO)C(=O)N[C@H](C(=O)N1CCC[C@H]1C(=O)N1CCC[C@@H]1C(=O)N[C@@H](CCC(=O)O)C(=O)N[C@@H](Cc1cccc2ccccc12)C(=O)N[C@@H](C)C(=O)N[C@@H](Cc1ccccc1)C(=O)N[C@@H](CC(N)=O)C(=O)N[C@@H](CCCCN)C(=O)N1CCC[C@H]1C(=O)N[C@@H](Cc1ccccc1)C(=O)N[C@H](C(=O)N[C@@H](Cc1ccccc1)C(=O)O)C(C)C)[C@@H](C)CC [VIR-258, LEAIPMSIPpE(1-naphthylalanine)AFNKPFVF] (H-LEAIPMSIP[dP]E[1Nal]AFNKPFVF-OH)
- IC50 [1]: 0.62 µM
- IC50 [2]: 0.64 µM

Molecule: H-LEAIPMSIPPEIAFNKPFVF-OH [VIR-184]
- IC50 [1]: 5.39 µM
- increase in anti-HIV activity in comparison to VIRIP ([2]; from IC50 against two HIV-1 strains (NL4-3, DTV)): 4 fold
- IC50 [2]: 1.99 µM

Molecule: CC[C@H](C)[C@H](NC(=O)[C@H](CC(=O)O)NC(=O)[C@H](CCC(=O)O)NC(=O)[C@@H](N)CC(C)C)C(=O)N1CCC[C@H]1C(=O)N[C@@H](CCSC)C(=O)N[C@@H](CO)C(=O)N[C@H](C(=O)N1CCC[C@H]1C(=O)N1CCC[C@@H]1C(=O)N[C@@H](CCC(=O)O)C(=O)N[C@H](C(=O)N[C@@H](C)C(=O)N[C@@H](Cc1ccccc1)C(=O)N[C@@H](CC(N)=O)C(=O)N[C@@H](CCCCN)C(=O)N1CCC[C@H]1C(=O)N[C@@H](Cc1ccccc1)C(=O)N[C@H](C(=O)N[C@@H](Cc1ccccc1)C(=O)O)C(C)C)C(C)C)[C@@H](C)CC [VIR-252, LEDIPMSIPpEVAFNKPFVF] (H-LEDIPMSIP[dP]EVAFNKPFVF-OH)
- IC50 [1]: 1.87 µM
- IC50 [2]: 1.75 µM

Molecule: CC[C@H](C)[C@H](NC(=O)[C@@H]1CCCN1C(=O)[C@@H](NC(=O)[C@H](C)NC(=O)[C@H](CCC(=O)O)NC(=O)[C@@H](N)CC(C)C)[C@@H](C)CC)C(=O)N[C@@H](CO)C(=O)N[C@H](C(=O)N1CCC[C@H]1C(=O)N1CCC[C@@H]1C(=O)N[C@@H](CCC(=O)O)C(=O)N[C@H](C(=O)N[C@@H](C)C(=O)N[C@@H](Cc1ccccc1)C(=O)N[C@@H](CC(N)=O)C(=O)N[C@@H](CCCCN)C(=O)N1CCC[C@H]1C(=O)N[C@@H](Cc1ccccc1)C(=O)N[C@H](C(=O)N[C@@H](Cc1ccccc1)C(=O)O)C(C)C)C(C)C)[C@@H](C)CC [VIR-229, LEAIPISIPpEVAFNKPFVF] (H-LEAIPISIP[dP]EVAFNKPFVF-OH)
- IC50 [1]: 2.26 µM
- IC50 [2]: 1.28 µM

Molecule: H-LEAIPMSIPPEVFFGKPFVF-OH [VIR-170]
- IC50 [1]: 2 µM
- IC50 [2]: 1.52 µM
